The species named for assay [1] is Homo sapiens. In words: Apoptogenic activity against peripheral blood lymphocytes after 24 hr treatment at concentration 30 uM. It is filed as functional.
Assay [2] is described as follows: Apoptogenic activity against Molt cells after 24 hr treatment at concentration 30 uM. To be noted: Homo sapiens. The format is functional, cell-based.
A short description of assay [3]: Apoptogenic activity against K-422 cells after 24 hr treatment at concentration 30 uM. It is filed as functional, cell-based. Conditions: Homo sapiens.
The nature of assay [4]: Aoptogenic activity against Molt cells after 24 hr treatment at concentration 30 uM. The format is functional, cell-based. Conditions: Homo sapiens.

These results are taken from ChEMBL document CHEMBL1131874, “Synthesis and apoptogenic activity of fluorinated ceramide and dihydroceramide analogues” (1999).

The structures appear in SMILES notation.

Regarding `CCCCCCC/C=C/[C@H](O)[C@H](CO)NC(=O)CCCCC`, the Cells was determined as 33.5% in assay [1], 1% in assay [2] and 32.7% in assay [3].
On to `CCCCCCC/C=C/[C@@H](O)[C@H](CO)NC(=O)CCCCC`, for which the Cells in assay [1] was 12%; in assay [2], 3.5%; in assay [3], 12.7%.
In the case of `CCCCCCCCCCCCC/C=C/[C@@H](O)[C@H](CO)NC(C)=O`, the figures for the Cells in assay [1], in assay [2] and in assay [3] were 48.8%, 51% and 27.7%, respectively.
With `CCCCCCC/C=C/[C@@H](F)[C@H](CO)NC(=O)CCCCC`, the values for the Cells in assay [1], in assay [2] and in assay [3] were 40%, 11% and 34.7%, respectively.
The matching figures for `CCCCCCCCC[C@H](O)[C@H](CO)NC(=O)CCCCC`: 57%, 9% and 15%.
With `CCCCCCC/C=C/[C@H](F)[C@H](CO)NC(=O)CCCCC`, the Cells in assay [1] was 47.7%; in assay [2], 13.7%; in assay [3], 51.2%.
In the same order, the values of `CCCCCC(=O)N[C@@H](CO)[C@@H](F)CCc1ccccc1` are 0.5%, 2% and 2.5%.
For the compound `CCCCCCCCC[C@H](F)[C@H](CO)NC(=O)CCCCC`, the Cells stood at 46% in assay [1], 31.6% in assay [2] and 32% in assay [3].
With `CCCCCCCCC[C@H](F)[C@H](CO)NC(C)=O`, the Cells was found to be 3% in assay [4], 3% in assay [1] and 7.3% in assay [3].
